# Data published in US20260083751A1, “ALLOSTERIC MODULATORS OF ANDROGEN RECEPTOR COACTIVATOR RECRUITMENT FOR CRPC THERAPY” (University of Pittsburgh – Of the Commonwealth System of …, priority 2022, published 2026).
# “Also recorded” adds a separate entry of the source.
# Experiments:
# Format in all cases: cell-based
# TIF2 = molecular target: T1, TIF2 (Homo sapiens, UniProt Q15596); experiment: Western blotting cellular thermal shift assay for TIF2 in C4-2 cells; details: 20 μM, TIF2 western blots
# T1 construct: endogenous in cells; host or cells: C4-2 castration resistant prostate cancer cells
# Experimental: Western Blotting Cellular Thermal Shift Assays for TIF2 and AR Target Engagement in C4-2 Cells: C4-2 cells were harvested by trypsinization, washed 1× by centrifugation at 270×g for 5 min and resuspension in PBS, counted, centrifugated at 270× g for 5 min and resuspended at 7×10^6 cells per mL in Opti-MEM medium (Gibco, Gaithersburg, MD). 50 μL of C4-2 cell suspension (3.5×10^5 cells) were then transferred to PCR tubes that were placed in a T-100 thermocycler (BioRad, Hercules, CA) and a 2° C. interval temperature step gradient from 37° C. to 53° C. was applied. Cells were maintained at each step of the temperature gradient for 5 min and then tubes were withdrawn and placed on ice. 50 μL of cell lysis buffer, 500 mM NaCl, 1% NP-40, 1× protease inhibitor cocktail in PBS were added to the heat shocked cell suspensions in PCR tubes and placed on ice for an additional 30 min. Cell lysates were then centrifuged at 14,000 RPM (18,800×g) at 4° C. for 15 min and supernatants were transferred to new tubes and protein concentrations were determined in a bicinchoninic acid (BCA) assay. 45 μL of cell lysis supernatants were mixed with 15 μL of 5×SDS-PAGE sample buffer and placed in a heat block at 100° C. for 5 min. The protein constituents of heat shocked C4-2 cell lysis supernatants were separated by SDS-PAGE on 8% separating gels, transferred to nitrocellulose membranes that were blocked for 1 h at room temperature in 5% non-fat milk in TBST, and then probed overnight at 4° C. with a 1:1000 dilution of either rabbit anti-AR (Cell Signaling, Danvers, MA) or rabbit anti-TIF2 (Bethyl Laboratories, Waltham, MA) primary antibodies in TBST containing 5% non-fat milk. Membranes were then washed 3× in TBST buffer for 10 min, then incubated with a 1:10,000 dilution of the goat anti-rabbit IgG HRP conjugated secondary antibody (Invitrogen, Carlsbad, CA) in TBST containing 5% non-fat milk for 1 h at room temperature. Western blots were then washed 3× in TBST buffer and developed with Pierce ECL western blotting substrate. Images of ECL western blots were acquired on an iBright™ 1500 imaging system and quantified using the iBright™ image analysis software.
# AR-LBD and SRC1 = molecular target: T2, AR-LBD and SRC1 (Homo sapiens, UniProt P10275); experiment: AR-SRC1 mammalian 2-hybrid assay; details: HEK 293 cells; read-out: Inhibition DHT-induced AR-SRC1 mammalian 2 hybrid assay IC50
# T2 construct: AR-LBD amino acids 658-919 expressed as a fusion protein with Gal4-DBD; expressed in transfected cells; host or cells: HEK 293, transient co-transfection
# T2 sequence (P10275 658-919): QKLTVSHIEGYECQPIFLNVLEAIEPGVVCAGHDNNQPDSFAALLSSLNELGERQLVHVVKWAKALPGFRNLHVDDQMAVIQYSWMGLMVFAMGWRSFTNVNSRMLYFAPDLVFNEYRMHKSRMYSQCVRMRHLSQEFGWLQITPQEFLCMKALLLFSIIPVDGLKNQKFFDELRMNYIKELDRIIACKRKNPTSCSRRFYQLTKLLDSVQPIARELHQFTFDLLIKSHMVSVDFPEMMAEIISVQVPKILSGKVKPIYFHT
# Description: TIF2 and SRC1 Mammalian 2-Hybrid Assays: The 5×GAL4-TATA-luciferase reporter plasmid was a gift from Dr. Richard Maurer from the Oregon Health and Science University (Gonzalez et al., Cell 1989, 59:675-80), and constructs pGAL4-hAR-658-919 (AR-LBD amino acids 658-919 expressed as a fusion protein with Gal4-DBD) (Askew et al., J Biol Chem 2007, 282:25801-16), pVP16-SRC1 (full-length SRC1 expressed as a fusion with VP16 activation domain) (He et al., J Biol Chem 1999, 274:37219-25) and pVP16-Empty vectors were kindly provided to us by Dr. Elizabeth Wilson, from UNC Chapel Hill. pVP16-TIF2 was generated as described previously (Fancher et al., Assay Drug Dev Technol. 2019, 17:364-386). HEK 293 cells were transiently co-transfected with 5 ng of pGal4-AR-LBD, 10 ng of either pVP16-TIF2 or pVP16-SRC1, and 20 ng of the 5×Gal4-TATA-Luc reporter as described previously (Ibid.). HEK 293 cells were bulk co-transfected with the three plasmids that had been individually incubated with FuGENE® 6 transfection agent (Fugent LLC, Middleton, WI) at a 3:1 ratio for 25 min at room temperature (RT) in serum free media (SFM) and then combined with HEK 293 cells that were suspended in DMEM (Cellgro10013CV) with 2 mM L-glutamine (Invitrogen) that was supplemented with 10% fetal bovine serum, and 5,000 cells in a volume of 40 μL were seeded into the wells of white opaque 384-well assay plates (Greiner Bio-one, #781080) and cultured overnight at 37° C., 5% CO2, and 95% humidity. […] 25 μL of BrightGlo® reagent (Promega, Madison, WI) was added to the plate and the relative luminescence units (RLUs) were captured on a SpectraMax® M5e microtiter plate reader (Molecular Devices, LLC, San Jose, CA).
# [1] = tested on: DHT-induced AR-mediated PSA promoter-driven transcription in PC3-AR-FL-GFP cells; experiment: PSA promoter-driven transcription in PC3-AR-FL-GFP cells
# Experimental: Compounds 1-5 were assessed to determine whether each compound could block DHT-induced AR-TIF2 PPI (protein-protein interaction complex) formation and/or disrupt preformed DHT-induced AR-TIF2 PPIs. Additionally, the following activities were evaluated: • inhibition of DHT-induced AR-mediated PSA promoter-driven transcription in C4-2 CRPC cells; • inhibition of DHT-induced AR-LBD PPI interactions with TIF2 and SRC1 coactivators; • inhibition of DHT-induced AR-LBD PPI interactions with TIF2 Box III-LXXLL peptide; • inhibition of H^3-DHT binding to AR-LBD; • inhibition of DHT-induced AR-mediated PSA promoter-driven transcription in PC3-AR-FL-GFP cells; • inhibition of constitutive AR-V7-mediated PSA promoter-driven transcription in PC3-AR-V7 GFP cells; • inhibition of constitutive UBE2C promoter-driven transcription in PC3-AR-V7 GFP cells; • inhibition of growth in AR-negative prostate cancer (PCa) cell lines PC3 and DU145; and • inhibition of growth in AR-positive PCa cell lines LNCap, C4-2 (CRPC), and 22Rv1 (CRPC).
# T1 sequence (Q15596 whole entry): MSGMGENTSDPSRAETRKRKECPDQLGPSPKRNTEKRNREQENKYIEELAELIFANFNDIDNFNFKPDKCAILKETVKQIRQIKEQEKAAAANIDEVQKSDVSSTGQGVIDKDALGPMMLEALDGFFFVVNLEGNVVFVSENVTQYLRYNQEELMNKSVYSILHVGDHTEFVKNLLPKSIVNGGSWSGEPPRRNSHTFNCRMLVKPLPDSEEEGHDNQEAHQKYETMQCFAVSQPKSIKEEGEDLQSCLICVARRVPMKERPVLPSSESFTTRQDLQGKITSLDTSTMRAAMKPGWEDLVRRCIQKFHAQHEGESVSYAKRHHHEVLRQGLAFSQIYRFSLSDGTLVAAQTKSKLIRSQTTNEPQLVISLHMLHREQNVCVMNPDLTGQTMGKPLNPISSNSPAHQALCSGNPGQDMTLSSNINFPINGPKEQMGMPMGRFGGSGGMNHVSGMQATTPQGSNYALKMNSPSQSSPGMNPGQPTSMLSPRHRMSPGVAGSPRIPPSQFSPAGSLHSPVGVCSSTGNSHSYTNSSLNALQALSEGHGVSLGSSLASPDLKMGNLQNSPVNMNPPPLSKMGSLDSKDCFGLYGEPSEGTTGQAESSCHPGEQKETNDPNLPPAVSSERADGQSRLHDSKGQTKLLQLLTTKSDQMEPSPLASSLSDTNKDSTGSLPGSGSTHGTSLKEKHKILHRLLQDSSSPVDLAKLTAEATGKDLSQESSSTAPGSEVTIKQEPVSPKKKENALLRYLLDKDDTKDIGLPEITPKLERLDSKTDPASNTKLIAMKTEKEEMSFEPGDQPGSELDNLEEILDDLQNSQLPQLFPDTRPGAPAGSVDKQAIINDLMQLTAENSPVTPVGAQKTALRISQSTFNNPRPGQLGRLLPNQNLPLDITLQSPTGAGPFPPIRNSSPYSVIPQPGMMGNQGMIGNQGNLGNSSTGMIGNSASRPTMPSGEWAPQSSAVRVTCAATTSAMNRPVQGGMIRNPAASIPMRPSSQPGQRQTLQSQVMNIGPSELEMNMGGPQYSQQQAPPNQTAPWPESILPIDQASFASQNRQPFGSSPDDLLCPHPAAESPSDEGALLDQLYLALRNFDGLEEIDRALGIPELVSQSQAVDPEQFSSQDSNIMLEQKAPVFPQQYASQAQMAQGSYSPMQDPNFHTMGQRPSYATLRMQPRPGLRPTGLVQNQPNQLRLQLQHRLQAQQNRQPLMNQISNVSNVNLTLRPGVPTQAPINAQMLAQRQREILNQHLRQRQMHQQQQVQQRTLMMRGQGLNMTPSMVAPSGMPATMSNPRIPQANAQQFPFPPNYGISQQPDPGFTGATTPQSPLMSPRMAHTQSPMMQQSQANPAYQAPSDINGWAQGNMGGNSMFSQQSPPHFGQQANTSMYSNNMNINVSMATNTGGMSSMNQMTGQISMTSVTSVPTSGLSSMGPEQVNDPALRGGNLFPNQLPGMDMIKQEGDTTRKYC
SMILES,TIF2 thermal stability at 46° C. (TIF2),IC50 (AR-LBD and SRC1) [µM],IC50 [1] [µM],TIF2 thermal stability at 46° C. (TIF2; listed as 6)
Cc1ccccc1-c1cc(O)c2c(c1)CN(c1nc(C(N)=O)cs1)CCO2 [Compound S1-1],did not enhance TIF2 thermal stability; also recorded: do not enhance TIF2 thermal stability,0.38,< 44,
Cc1nc(N)cc(N2CCOc3c(O)cc(-c4ccccc4C)cc3C2)n1 [Compound S1-2],,,< 44,
Cc1nsc(NC(=O)N2CCC(Sc3ccccc3C)CC2)n1 [Compound S2-6],did not enhance TIF2 thermal stability; also recorded: do not enhance TIF2 thermal stability,0.29,~28,did not enhance TIF2 stability
Cc1c(-c2ccccc2F)[nH]c2ccc(CNC(=O)CCc3cn[nH]c3)cc12 [Compound S3-11],did not enhance TIF2 thermal stability; also recorded: do not enhance TIF2 thermal stability,0.6,~50,
Cc1c(-c2ccccc2F)[nH]c2ccc(CNC(=O)CCc3cnccn3)cc12 [Compound S3-12],,,> 100,
CC(=O)NCCC(=O)NCc1ccc2[nH]c(-c3ccccc3F)c(C)c2c1 [Compound S3-13],,,> 100,
Cc1c(-c2ccccc2F)[nH]c2ccc(CNC(=O)c3ccc(CO)o3)cc12 [Compound S3-14],,,~50,
Cc1c(-c2ccc(F)cc2)[nH]c2ccc(CNC(=O)c3ccc(CO)o3)cc12 [Compound S3-15],,,~10,
Cc1cccc2c(-c3ccc(O)c(F)c3)c[nH]c12 [Compound S3-17],,,~50,
CNC(=O)c1ccc(-c2c[nH]c3c(C)cccc23)cc1 [Compound S3-21],,,> 100,
